Reference: ChEMBL document CHEMBL3046795, “Antifeedant activity of plant extracts and of new natural diglyceride compounds isolated from Ajuga pseudoiva leaves against Spodoptera littoralis larvae” (2001)

Experiments:
Type in all cases: functional
Spodoptera littoralis [1] = test: Antifeedant activity against Spodoptera littoralis measured at 1 mg/l after 8 to 24 hr by behavioral bioassay
Spodoptera littoralis [2] = test: Antifeedant activity against Spodoptera littoralis measured at 10 mg/l after 8 to 24 hr by behavioral bioassay
Spodoptera littoralis [3] = test: Antifeedant activity against Spodoptera littoralis measured at 50 mg/l after 8 to 24 hr by behavioral bioassay
Spodoptera littoralis [4] = test: Antifeedant activity against Spodoptera littoralis measured at 100 mg/l after 8 to 24 hr by behavioral bioassay

## CCCCCCCCCCCCCC(O)CC(=O)OC (stereo not drawn) [3-HYDROXYHEXADECANOIC ACID METHYL ESTER]
Spodoptera littoralis [1]
  AFI: -3.5%
Spodoptera littoralis [2]
  AFI: 9.1%
Spodoptera littoralis [3]
  AFI: 32%
Spodoptera littoralis [4]
  AFI: 45%

## C=C(C)[C@@H](CC)CC[C@@H](C)[C@H]1CC[C@H]2[C@@H]3CC=C4C[C@@H](O)CC[C@]4(C)[C@H]3CC[C@]12C [CLEROSTEROL]
Spodoptera littoralis [3]
  AFI: -15.3%
Spodoptera littoralis [4]
  AFI: 3.3%

## C=C(C)[C@@H](CC)CC[C@@H](C)[C@H]1CC[C@H]2[C@@H]3CC=C4C[C@@H](OC(=O)CCC)CC[C@]4(C)[C@H]3CC[C@]12C [MIGHAVIDE]
Spodoptera littoralis [3]
  AFI: -0.5%
Spodoptera littoralis [4]
  AFI: 10.3%
